# Results published in BindingDB's records for patent US12466809 (Dana-Farber Cancer Institute, 2025).
# Molecular target: Cyclin-A2/Cyclin-dependent kinase 2 (Homo sapiens, UniProt P24941)
# Assay: Biochemical Assay
# Excerpt: CDK2 and CDK5 IC50 data were attained through the use of Invitrogen™ commercial assays. The method for CDK2 (assay ID: 315, kinase|Z'-LYTE™|CDK2/Cyclin A|Km app) used a 10-point titration. The method for CDK5 (assay ID: 318, kinase|Z'-LYTE™|CDK5/p25|Km app) used a 10-point titration. All the bifunctional compounds showed potent biochemical inhibition on both CDK2/5 enzymes.
row,Compound,IC50 [nM]
1,"Cc1ncsc1-c1ccc([C@H](C)NC(=O)[C@@H]2C[C@@H](O)CN2C(=O)[C@@H](NC(=O)CCOCCOCCC(=O)NCCS(=O)(=O)N2CCC(Nc3ncc(Br)c(Nc4cccc(F)c4C(N)=O)n3)CC2)C(C)(C)C)cc1 [US12466809, Compound 11]",6.8
2,"Cc1ncsc1-c1ccc([C@H](C)NC(=O)[C@@H]2C[C@@H](O)CN2C(=O)[C@@H](NC(=O)CCC(=O)NCCS(=O)(=O)N2CCC(Nc3ncc(Br)c(Nc4cccc(F)c4C(N)=O)n3)CC2)C(C)(C)C)cc1 [US12466809, Compound 12]",5.3
3,"NC(=O)c1c(F)cccc1Nc1nc(NC2CCN(S(=O)(=O)CCNC(=O)CCC(=O)NCCCCCNc3cccc4c3C(=O)N(C3CCC(=O)NC3=O)C4=O)CC2)ncc1Br (stereo unspecified) [US12466809, Compound 13]",3.8
4,"NC(=O)c1c(F)cccc1Nc1nc(NC2CCN(S(=O)(=O)CCNC(=O)CCCCCCCCC#Cc3cccc4c3CN(C3CCC(=O)NC3=O)C4=O)CC2)ncc1Br (stereo unspecified) [US12466809, Compound 14]",57.2

# Continued, values first:
row,IC50 [nM],Compound
1,50,"NC(=O)c1c(F)cccc1Nc1nc(NC2CCN(S(=O)(=O)CCNC(=O)CCCCCCCCCCc3cccc4c3CN(C3CCC(=O)NC3=O)C4=O)CC2)ncc1Br (stereo unspecified) [US12466809, Compound 15]"
2,> 370,"O=C(CCCCCCCCC#Cc1cccc2c1CN(C1CCC(=O)NC1=O)C2=O)NCCS(=O)(=O)N1CCC(Nc2ncc(Br)c(Nc3cccc4c3OCO4)n2)CC1 (stereo unspecified) [US12466809, Compound 16]"
